According to ChEMBL document CHEMBL1130973, “Synthesis and biological evaluation of 3-arylisoquinolines as antitumor agents” (Bioorg Med Chem Lett, 1998):
pIC50: −log10 of the molar value. Where “and” joins values, the source holds several entries; their conditions need not be identical. Identical values can stand only once. Blank lines part the entries; values can stand above or below the molecule they belong to.

Tests used:
HCT-15 (Homo sapiens) [1] = experiment: In vitro cytotoxicity against HCT 15 (human colon) tumor cell line.
SK-OV-3 [2] = experiment: In vitro cytotoxicity against SKOV-3 (human ovarian) tumor cell line.; format: functional, cell-based
XF498 (Homo sapiens) = experiment: In vitro cytotoxicity against XF498 (human CNS) tumor cell line.
SK-MEL-2 [3] = experiment: In vitro cytotoxicity against SK-MEL-2 (human melanoma) tumor cell line.; format: functional, cell-based
A549 [4] = experiment: Tested for in vitro cytotoxicity against A 549 (human lung) tumor cell line using sulforhodamine B (SRB) assay; format: functional, cell-based
HCT-15 [5] = experiment: Tested for in vitro cytotoxicity against HCT 15 (human colon) tumor cell line using sulforhodamine B (SRB) assay; format: functional, cell-based
SK-OV-3 [6] = experiment: Tested for in vitro cytotoxicity against SKOV-3 (human ovarian) tumor cell line using sulforhodamine B (SRB) assay; format: functional, cell-based
XF498 [7] = experiment: Tested for in vitro cytotoxicity against XF498 (human CNS) tumor cell line using sulforhodamine B (SRB) assay; format: functional, cell-based
SK-MEL-2 [8] = experiment: Tested for in vitro cytotoxicity against SK-MEL-2 (human melanoma) tumor cell line using sulforhodamine B (SRB) assay; format: functional, cell-based
SK-OV-3 [9] = experiment: Tested for in vitro cytotoxicity against SKOV-3 (human ovarian) tumor cell line using sulforhodamine B (SRB) assay; not active (> 100 uM); format: functional, cell-based
A549 [10] = experiment: Tested for in vitro cytotoxicity against A 549 (human lung) tumor cell line using sulforhodamine B (SRB) assay; not active (> 100 uM); format: functional, cell-based
SK-MEL-2 [11] = experiment: Tested for in vitro cytotoxicity against SK-MEL-2 (human melanoma) tumor cell line using sulforhodamine B (SRB) assay; not active (> 100 uM); format: functional, cell-based
HCT-15 (Homo sapiens) [12] = experiment: Tested for in vitro cytotoxicity against HCT 15 (human colon) tumor cell line using sulforhodamine B (SRB) assay; not active (> 100 uM)
HCT-15 [13] = experiment: Tested for in vitro cytotoxicity against HCT 15 (human colon) tumor cell line using sulforhodamine B (SRB) assay; not active (> 100 uM); format: functional, cell-based
HCT-15 [14] = experiment: In vitro cytotoxicity against HCT 15 (human colon) tumor cell line.; format: functional, cell-based
XF498 [15] = experiment: In vitro cytotoxicity against XF498 (human CNS) tumor cell line.; format: functional, cell-based
Mus musculus = experiment: In vivo anti tumor activity towards P388 leukemia in BDFl mouse expressed as T/C; format: functional
SK-MEL-2 [16] = experiment: Tested for inhibitory activity against SK-MEL-2 (human melanoma) tumor cell line; format: functional, cell-based

Structure (SMILES): Oc1nc(-c2ccccc2)cc2ccccc12
pIC50 (HCT-15 (Homo sapiens) [1]): 5.86 | pIC50 (SK-OV-3 [2]; Homo sapiens, SK-OV-3): 5.61 | pIC50 (XF498 (Homo sapiens)): 5.23 | pIC50 (SK-MEL-2 [3]; Homo sapiens, SK-MEL-2): 5.59 | pIC50 (A549 [4]; Homo sapiens, A549): 5.24

Structure (SMILES): Cc1ccc2c(O)nc(-c3ccc(Cl)cc3)cc2c1
pIC50 (HCT-15 [5]): 4.95 | pIC50 (SK-OV-3 [6]): 5.22 | pIC50 (A549 [4]): 5.24 | pIC50 (XF498 [7]): 4.95 | pIC50 (SK-MEL-2 [8]): 5.20

Structure (SMILES): Cc1ccc(-c2cc3cc(C)ccc3c(O)n2)cc1
pIC50 (HCT-15 (Homo sapiens) [1]): 4.95 | pIC50 (SK-OV-3 [2]; Homo sapiens, SK-OV-3): 5.31 | pIC50 (XF498 (Homo sapiens)): 4.45 | pIC50 (SK-MEL-2 [3]; Homo sapiens, SK-MEL-2): 5.11 | pIC50 (A549 [4]; Homo sapiens, A549): 5.25

Structure (SMILES): COc1ccc(-c2cc3c(N(C)C)cccc3c(O)n2)cc1
IC50 (SK-OV-3 [9]): Not Active | IC50 (A549 [10]): Not Active | IC50 (SK-MEL-2 [11]): Not Active | IC50 (HCT-15 (Homo sapiens) [12]): Not Active | IC50 (HCT-15 [13]): Not Active

Structure (SMILES): Cc1ccc(-c2cc3c(N(C)C)cccc3c(O)n2)cc1
IC50 (SK-OV-3 [9]): Not Active | IC50 (A549 [10]): Not Active | IC50 (SK-MEL-2 [11]): Not Active | IC50 (HCT-15 (Homo sapiens) [12]): Not Active | IC50 (HCT-15 [13]): Not Active

Structure (SMILES): COc1ccc(-c2cc3cc(C)ccc3c(N3CCN(C)CC3)n2)cc1
pIC50 (HCT-15 (Homo sapiens) [1]): 5.13 | pIC50 (SK-OV-3 [2]; Homo sapiens, SK-OV-3): 5.10 | pIC50 (XF498 (Homo sapiens)): 5.03 | pIC50 (SK-MEL-2 [3]; Homo sapiens, SK-MEL-2): 5.43 | pIC50 (A549 [4]; Homo sapiens, A549): 5.13

Structure (SMILES): Cc1ccc(-c2cc3ccccc3c(O)n2)cc1
pIC50 (HCT-15 (Homo sapiens) [1]): 5.15 | pIC50 (SK-OV-3 [2]; Homo sapiens, SK-OV-3): 4.86 | pIC50 (XF498 (Homo sapiens)): 4.37 | pIC50 (SK-MEL-2 [3]; Homo sapiens, SK-MEL-2): 5.30 | pIC50 (A549 [4]; Homo sapiens, A549): 4.52

Structure (SMILES): Cc1ccc2c(O)nc(-c3ccccc3)cc2c1
pIC50 (HCT-15 (Homo sapiens) [1]): 6.12 | pIC50 (SK-OV-3 [2]; Homo sapiens, SK-OV-3): 5.77 | pIC50 (XF498 (Homo sapiens)): 5.29 | pIC50 (SK-MEL-2 [3]; Homo sapiens, SK-MEL-2): 5.80 | pIC50 (A549 [4]; Homo sapiens, A549): 5.88

Structure (SMILES): Oc1nc(-c2ccc3c(c2)OCO3)cc2ccccc12
IC50 (A549 [10]): Not Active | pIC50 (HCT-15 (Homo sapiens) [1]): 5.57 | pIC50 (SK-OV-3 [2]; Homo sapiens, SK-OV-3): 4.11 | pIC50 (XF498 (Homo sapiens)): 4.75 | pIC50 (SK-MEL-2 [3]; Homo sapiens, SK-MEL-2): 4.60

Structure (SMILES): CN(C)c1cccc2c(O)nc(-c3ccccc3)cc12
IC50 (SK-OV-3 [9]): Not Active | IC50 (A549 [10]): Not Active | IC50 (SK-MEL-2 [11]): Not Active | IC50 (HCT-15 (Homo sapiens) [12]): Not Active | IC50 (HCT-15 [13]): Not Active

Structure (SMILES): Cc1ccc(-c2cc3cc(C)ccc3c(N3CCN(C)CC3)n2)cc1
pIC50 (HCT-15 (Homo sapiens) [1]): 5.35 | pIC50 (SK-OV-3 [2]; Homo sapiens, SK-OV-3): 5.15 | pIC50 (XF498 (Homo sapiens)): 5.08 | pIC50 (SK-MEL-2 [3]; Homo sapiens, SK-MEL-2): 5.62 | pIC50 (A549 [4]; Homo sapiens, A549): 5.14

Structure (SMILES): COc1ccc(-c2cc3ccccc3c(S)n2)cc1
IC50 (SK-OV-3 [9]): Not Active | IC50 (A549 [10]): Not Active | pIC50 (XF498 (Homo sapiens)): 4.08 | IC50 (SK-MEL-2 [11]): Not Active | IC50 (HCT-15 (Homo sapiens) [12]): Not Active

Structure (SMILES): Cc1ccc2c(N3CCN(C)CC3)nc(-c3ccc(Cl)cc3)cc2c1
pIC50 (HCT-15 (Homo sapiens) [1]): 5.39 | pIC50 (SK-OV-3 [2]; Homo sapiens, SK-OV-3): 5.24 | pIC50 (XF498 (Homo sapiens)): 5.22 | pIC50 (SK-MEL-2 [3]; Homo sapiens, SK-MEL-2): 5.62 | pIC50 (A549 [4]; Homo sapiens, A549): 5.50

Structure (SMILES): Cc1ccc2c(S)nc(-c3ccccc3)cc2c1
pIC50 (HCT-15 [14]): 4.72 and 4.38 | pIC50 (XF498 [15]): 5.04 and 4.12 | pIC50 (SK-OV-3 [2]; Homo sapiens, SK-OV-3): 4.46 | pIC50 (SK-OV-3 [2]; sk-ov-3): 4.25 | pIC50 (SK-MEL-2 [3]; Homo sapiens, SK-MEL-2): 4.71 | pIC50 (SK-MEL-2 [3]; sk-mel-2): 4.60 | pIC50 (A549 [4]; Homo sapiens, A549): 5.07 | pIC50 (A549 [4]; a549): 4.96

Structure (SMILES): CN1CCN(c2nc(-c3ccccc3)cc3c(N(C)C)cccc23)CC1
pIC50 (HCT-15 (Homo sapiens) [1]): 5.02 | pIC50 (SK-OV-3 [2]; Homo sapiens, SK-OV-3): 4.95 | pIC50 (XF498 (Homo sapiens)): 4.70 | pIC50 (SK-MEL-2 [3]; Homo sapiens, SK-MEL-2): 5.15 | pIC50 (A549 [4]; Homo sapiens, A549): 5.00

Structure (SMILES): Cc1ccc2c(O)nc(-c3ccccc3C)cc2c1
pIC50 (HCT-15 (Homo sapiens) [1]): 5.70 | pIC50 (SK-OV-3 [2]; Homo sapiens, SK-OV-3): 5.37 | pIC50 (XF498 (Homo sapiens)): 4.51 | pIC50 (SK-MEL-2 [3]; Homo sapiens, SK-MEL-2): 5.58 | pIC50 (A549 [4]; Homo sapiens, A549): 5.23

Structure (SMILES): CN(C)c1cccc2c(O)nc(-c3ccc(Br)cc3)cc12
IC50 (SK-OV-3 [9]): Not Active | IC50 (A549 [10]): Not Active | IC50 (SK-MEL-2 [11]): Not Active | IC50 (HCT-15 (Homo sapiens) [12]): Not Active | IC50 (HCT-15 [13]): Not Active

Structure (SMILES): COc1ccc(-c2cc3c(N(C)C)cccc3c(N3CCN(C)CC3)n2)cc1
pIC50 (HCT-15 (Homo sapiens) [1]): 4.97 | pIC50 (SK-OV-3 [2]; Homo sapiens, SK-OV-3): 4.88 | pIC50 (XF498 (Homo sapiens)): 5.21 | pIC50 (SK-MEL-2 [3]; Homo sapiens, SK-MEL-2): 5.40 | pIC50 (A549 [4]; Homo sapiens, A549): 5.74

Structure (SMILES): Sc1nc(-c2ccccc2)cc2ccccc12
IC50 (SK-OV-3 [9]): Not Active | IC50 (A549 [10]): Not Active | IC50 (SK-MEL-2 [11]): Not Active | IC50 (HCT-15 (Homo sapiens) [12]): Not Active | IC50 (HCT-15 [13]): Not Active

Structure (SMILES): CN1CCN(c2nc(-c3ccccc3)cc3ccccc23)CC1
pIC50 (HCT-15 (Homo sapiens) [1]): 4.73 | pIC50 (SK-OV-3 [2]; Homo sapiens, SK-OV-3): 4.65 | pIC50 (XF498 (Homo sapiens)): 4.43 | pIC50 (SK-MEL-2 [3]; Homo sapiens, SK-MEL-2): 4.93 | T/C (Mus musculus): 160% | pIC50 (A549 [4]; Homo sapiens, A549): 4.60

Structure (SMILES): Cc1ccc2c(N3CCN(C)CC3)nc(-c3ccccc3C)cc2c1
pIC50 (HCT-15 (Homo sapiens) [1]): 5.18 | pIC50 (SK-OV-3 [2]; Homo sapiens, SK-OV-3): 5.29 | pIC50 (XF498 (Homo sapiens)): 4.11 | pIC50 (SK-MEL-2 [3]; Homo sapiens, SK-MEL-2): 5.47 | pIC50 (A549 [4]; Homo sapiens, A549): 5.12

Structure (SMILES): COc1ccc2c(c[n+](C)c3c4cc5c(cc4ccc23)OCO5)c1O [FAGARIDINE]
pIC50 (HCT-15 (Homo sapiens) [1]): 5.95 | pIC50 (SK-OV-3 [2]; Homo sapiens, SK-OV-3): 5.87 | pIC50 (XF498 (Homo sapiens)): 5.95 | pIC50 (SK-MEL-2 [3]; Homo sapiens, SK-MEL-2): 5.56 | pIC50 (A549 [4]; Homo sapiens, A549): 5.99

Structure (SMILES): Oc1nc(-c2ccc(C(F)(F)F)cc2)cc2ccccc12
IC50 (A549 [10]): Not Active | pIC50 (SK-OV-3 [2]; Homo sapiens, SK-OV-3): 4.06 | IC50 (SK-MEL-2 [11]): Not Active | IC50 (HCT-15 (Homo sapiens) [12]): Not Active | IC50 (HCT-15 [13]): Not Active

pIC50 (SK-MEL-2 [16]): 9.70
Structure (SMILES): C=Cc1cc2c(cc1-c1cc3ccc(OC)c(OC)c3c(=O)n1C)OCO2

Structure (SMILES): CN1CCN(c2nc(-c3ccc(Cl)cc3)cc3c(N(C)C)cccc23)CC1
pIC50 (HCT-15 (Homo sapiens) [1]): 5.14 | pIC50 (SK-OV-3 [2]; Homo sapiens, SK-OV-3): 5.12 | pIC50 (XF498 (Homo sapiens)): 5.10 | pIC50 (SK-MEL-2 [3]; Homo sapiens, SK-MEL-2): 5.37 | pIC50 (A549 [4]; Homo sapiens, A549): 5.13
